The target in assay [1] is T1, recombinant human cannabinoid receptor CB2 (Homo sapiens, UniProt P34972).
T1 construct: (cDNA clone) CNR0200000
The assay is described as follows: Cannabinoid receptor radioligand binding assay, [3H]-CP 55,940 displacement, hCB2. A digest of the protocol: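 Membranes from hCB2-transfected cells, prepared by 1000×g then 40,000×g centrifugation, resuspended in 20 mM HEPES pH 7.4, 5 mM MgCl2, 1 mM EDTA, 10% sucrose.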

Assay [2] has as its target T2, human CB1 receptors (Homo sapiens, UniProt P21554).
T2 construct: (cDNA clone) CNR01L000
The assay is described as follows: cAMP assay in HEK-293 cells, hCB1 agonist. As to conditions: inhibition of forskolin-stimulated cAMP, HEK-293 cells; for pEC50: read-out: hCB1 EC50 (cAMP ag). The class given is cell-based. The gist of the method: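 Stable hCB1 HEK-293 cells suspended in HBSS with 10 mM HEPES and 0.1% fatty acid-free BSA, incubated 30 min at 37° C. with compound plus forskolin (90 uM in the 3× compound solution). Lysed cAMP measured by enzyme-fragment kit; EC50 = 50% inhibition of forskolin-stimulated cAMP (forskolin maximum = 100%), sigmoidal fit.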
Background: cAMP levels reflect the balance of adenylyl cyclase and phosphodiesterase activity.

pEC50, pIC50: −log10 of the molar value.

By pIC50 is commonly meant −log10 of the IC50, conventionally taken in molar units. One may read the pEC50 as −log10 of the EC50, conventionally taken in molar units.

T2 sequence (P21554 whole entry): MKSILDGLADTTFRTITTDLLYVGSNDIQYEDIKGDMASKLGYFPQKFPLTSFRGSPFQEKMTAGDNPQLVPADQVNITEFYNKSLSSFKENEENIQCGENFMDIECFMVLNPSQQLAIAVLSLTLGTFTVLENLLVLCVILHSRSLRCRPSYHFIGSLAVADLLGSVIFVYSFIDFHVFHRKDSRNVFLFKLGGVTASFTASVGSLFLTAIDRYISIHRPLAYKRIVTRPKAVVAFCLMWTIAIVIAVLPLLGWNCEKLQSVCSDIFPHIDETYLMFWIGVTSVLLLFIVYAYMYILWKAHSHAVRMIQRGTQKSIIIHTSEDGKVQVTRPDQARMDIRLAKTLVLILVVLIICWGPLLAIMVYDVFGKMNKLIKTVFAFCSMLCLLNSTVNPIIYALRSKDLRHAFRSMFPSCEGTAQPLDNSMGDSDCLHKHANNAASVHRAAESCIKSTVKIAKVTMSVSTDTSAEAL
T1 sequence (P34972 whole entry): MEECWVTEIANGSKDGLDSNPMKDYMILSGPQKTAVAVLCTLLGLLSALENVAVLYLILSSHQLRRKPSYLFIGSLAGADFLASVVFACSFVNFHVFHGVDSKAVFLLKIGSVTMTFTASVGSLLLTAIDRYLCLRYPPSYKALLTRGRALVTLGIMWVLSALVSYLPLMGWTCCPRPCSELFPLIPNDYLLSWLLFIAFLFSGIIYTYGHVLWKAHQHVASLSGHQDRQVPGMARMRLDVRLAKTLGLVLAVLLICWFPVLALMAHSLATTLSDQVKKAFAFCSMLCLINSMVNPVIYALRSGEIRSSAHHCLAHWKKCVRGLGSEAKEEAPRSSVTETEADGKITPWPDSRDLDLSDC

For `COc1ccc(C(=O)c2cc3cc(C)n(CCN4CCOCC4)c3s2)cc1Cl` [Compound 116, (3-Chloro-4-methoxyphenyl)(5-methyl-6-(2-morpholinoethyl)-6H-thieno[2,3-b]pyrrol-2-yl)methanone], in assay [1], the negative-log IC50 (pIC50) is 6.00 to 7.00. For the same compound, the “hCB1 EC50 (cAMP ag, nM)” value in assay [2] was “NS (NS means “Not Significant,” which means less than 30% agonist activity when compared to the positive control.)”.

With `COc1ccc(C(=O)c2cc3cc(C)n(CCN4CCCCC4)c3s2)cn1` [Compound 117, (6-Methoxypyridin-3-yl)(5-methyl-6-(2-(piperidin-1-yl)ethyl)-6H-thieno[2,3-b]pyrrol-2-yl)methanone], the pIC50 in assay [1] was 6.00 to 7.00. In addition, the “hCB1 EC50 (cAMP ag, nM)” value in assay [2] is reported as “NS (NS means “Not Significant,” which means less than 30% agonist activity when compared to the positive control.)”.

As for `CCc1ccc(C(=O)c2cc3cc(C)n(CCN4CCOCC4)c3s2)cc1` [Compound 122, (4-Ethylphenyl)(5-methyl-6-(2-morpholinoethyl)-6H-thieno[2,3-b]pyrrol-2-yl)methanone], the pIC50 in assay [1] was greater than 7.00. The pEC50 in assay [2] was 5.00 to 6.00.

`Cc1cc2cc(C(=O)c3cccc(Cl)n3)sc2n1CCN1CCOCC1` [Compound 123, (6-Chloropyridin-2-yl)(5-methyl-6-(2-morpholinoethyl)-6H-thieno[2,3-b]pyrrol-2-yl)methanone]: in assay [1], the pIC50 is 6.00 to 7.00. The “hCB1 EC50 (cAMP ag, nM)” value in assay [2] is “NS (NS means “Not Significant,” which means less than 30% agonist activity when compared to the positive control.)”.

Take `Cc1ccc(C(=O)c2cc3cc(C)n(CCN4CCOCC4)c3s2)cc1` [Compound 124, (5-Methyl-6-(2-morpholinoethyl)-6H-thieno[2,3-b]pyrrol-2-yl)(p-tolyl)methanone]: the pIC50 in assay [1] is 6.00 to 7.00. Also, the negative-log EC50 (pEC50) in assay [2] was 5.00 to 6.00.

With `Cc1ccc(C(O)c2cc3cc(C)n(CCN4CCOCC4)c3s2)cn1` (centres unmarked) [Compound 125, (5-Methyl-6-(2-morpholinoethyl)-6H-thieno[2,3-b]pyrrol-2-yl)(6-methylpyridin-3-yl)methanol], the pIC50 in assay [1] is less than 5.00. In addition, in assay [2], the “hCB1 EC50 (cAMP ag, nM)” value is recorded as “NS (NS means “Not Significant,” which means less than 30% agonist activity when compared to the positive control.)”.

For the compound `COc1cc(F)c(C(=O)c2cc3cc(C)n(CCN4CCOCC4)c3s2)c(F)c1` [Compound 127, (2,6-difluoro-4-methoxyphenyl)(5-methyl-6-(2-morpholinoethyl)-6H-thieno[2,3-b]pyrrol-2-yl)methanone], the pIC50 in assay [1] is greater than 7.00. Besides, in assay [2], the negative-log EC50 (pEC50) is 5.00 to 6.00.

Consider `Cc1ccc(C(=O)c2cc3cc(C)n(CCN4CCOCC4)c3s2)cn1` [Compound 130, (5-methyl-6-(2-morpholinoethyl)-6H-thieno[2,3-b]pyrrol-2-yl)(6-methylpyridin-3-yl)methanone], for which the negative logarithm of the IC50 (pIC50) in assay [1] was 5.00 to 6.00. The “hCB1 EC50 (cAMP ag, nM)” value in assay [2] is reported as “NS (NS means “Not Significant,” which means less than 30% agonist activity when compared to the positive control.)”.

`COc1ccc(C(=O)c2cc3cc(C)n(CCN4CCOCC4)c3s2)nc1` [Compound 131, (5-methoxypyridin-2-yl)(5-methyl-6-(2-morpholinoethyl)-6H-thieno[2,3-b]pyrrol-2-yl)methanone]: in assay [1], the pIC50 was 6.00 to 7.00. Moreover, in assay [2], the “hCB1 EC50 (cAMP ag, nM)” value is given as “NS (NS means “Not Significant,” which means less than 30% agonist activity when compared to the positive control.)”.

As to `Cc1cc2cc(C(=O)c3ccc(N(C)C(=O)OC(C)(C)C)cc3)sc2n1CCN1CCOCC1` [Compound 132, tert-butylmethyl(4-(5-methyl-6-(2-morpholinoethyl)-6H-thieno[2,3-b]pyrrole-2-carbonyl)phenyl)carbamate], the pIC50 in assay [1] was 5.00 to 6.00. In assay [2], the “hCB1 EC50 (cAMP ag, nM)” value is listed as “NS (NS means “Not Significant,” which means less than 30% agonist activity when compared to the positive control.)”.

As for `CNc1ccc(C(=O)c2cc3cc(C)n(CCN4CCOCC4)c3s2)cc1` [Compound 134, (5-methyl-6-(2-morpholinoethyl)-6H-thieno[2,3-b]pyrrol-2-yl)(4-(methylamino)phenyl)methanone], the pIC50 in assay [1] was 6.00 to 7.00. Further, in assay [2], the “hCB1 EC50 (cAMP ag, nM)” value is recorded as “NS (NS means “Not Significant,” which means less than 30% agonist activity when compared to the positive control.)”.

Consider `COc1ccc(C(=O)c2cc3c(Cl)c(C)n(CCN4CCOCC4)c3s2)cc1` [Compound 140, (4-chloro-5-methyl-6-(2-morpholinoethyl)-6H-thieno[2,3-b]pyrrol-2-yl)(4-methoxyphenyl)methanone], for which the pIC50 in assay [1] is 6.00 to 7.00. The “hCB1 EC50 (cAMP ag, nM)” value in assay [2] is “NS (NS means “Not Significant,” which means less than 30% agonist activity when compared to the positive control.)”.

Take `CCN(CC)CCn1c(C)cc2cc(C(=O)c3ccc(OC)nc3)sc21` [Compound 142, (6-(2-(diethylamino)ethyl)-5-methyl-6H-thieno[2,3-b]pyrrol-2-yl)(6-methoxypyridin-3-yl)methanone]: the pIC50 in assay [1] was 5.00 to 6.00. In assay [2], the “hCB1 EC50 (cAMP ag, nM)” value is on record as “NS (NS means “Not Significant,” which means less than 30% agonist activity when compared to the positive control.)”.

`COc1ccc(C(=O)c2cc3cc(C)n(CC4CCOCC4)c3s2)cn1` [Compound 144, (6-methoxypyridin-3-yl)(5-methyl-6-((tetrahydro-2H-pyran-4-yl)methyl)-6H-thieno[2,3-b]pyrrol-2-yl)methanone]: the pIC50 in assay [1] is 6.00 to 7.00. Moreover, the “hCB1 EC50 (cAMP ag, nM)” value in assay [2] was “NS (NS means “Not Significant,” which means less than 30% agonist activity when compared to the positive control.)”.

For the compound `COc1ccc(C(=O)c2cc3cc(C)n(CC4CCOCC4)c3s2)c(F)c1` [Compound 145, (2-fluoro-4-methoxyphenyl)(5-methyl-6-((tetrahydro-2H-pyran-4-yl)methyl)-6H-thieno[2,3-b]pyrrol-2-yl)methanone], the pIC50 in assay [1] was greater than 7.00. For the same compound, the pEC50 in assay [2] was 5.00 to 6.00.

Regarding `CCOc1ccc(C(=O)c2cc3cc(C)n(CCN4CCOCC4)c3s2)cn1` [Compound 150, (6-Ethoxypyridin-3-yl)(5-methyl-6-(2-morpholinoethyl)-6H-thieno[2,3-b]pyrrol-2-yl)methanone], the pIC50 in assay [1] was 5.00 to 6.00. The “hCB1 EC50 (cAMP ag, nM)” value in assay [2] is reported as “NS (NS means “Not Significant,” which means less than 30% agonist activity when compared to the positive control.)”.

The values are drawn from patent publication US20130029970A1 (priority 2009, published 2013).
